# Test results published in patent US11174268B2, “Benzenesulfonamide compouds and their use as therapeutic agents” (Xenon Pharmaceuticals Inc., priority 2016, dated 2021).
# Where a name gives a salt, the structure may show the parent alone. Read-outs that look alike come from different tables or passages of the source.
# What was measured:
# NaV1.6 = NaV1.6 (Homo sapiens (Human), UniProt Q9UQD0); assay: Sodium Influx Assay (Flux), NaV1.6; format: cell-based; conditions: Trex HEK293 cells, ANG2 dye, inactivated state;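 also: Tetracycline-induced cells, compounds applied for one hour at room temperature with modulators holding channels open, IC50 from percent inhibition of sodium influx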
# NaV1.1 = NaV1.1 (Homo sapiens (Human), UniProt P35498); assay: Sodium Influx Assay (Flux), NaV1.1; format: cell-based; conditions: Trex HEK293 cells, ANG2 dye, inactivated state;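 also: channels co-expressed with human β1 subunit and held open by modulators, cells exposed to compounds for one hour at room temperature, IC50 from percent inhibition of influx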
# NaV1.5 = NaV1.5 (Homo sapiens (Human), UniProt Q14524); assay: Sodium Influx Assay (Flux), NaV1.5
# NaV1.5, sequence (Q14524 other isoform, or with tags, fused parts or gaps): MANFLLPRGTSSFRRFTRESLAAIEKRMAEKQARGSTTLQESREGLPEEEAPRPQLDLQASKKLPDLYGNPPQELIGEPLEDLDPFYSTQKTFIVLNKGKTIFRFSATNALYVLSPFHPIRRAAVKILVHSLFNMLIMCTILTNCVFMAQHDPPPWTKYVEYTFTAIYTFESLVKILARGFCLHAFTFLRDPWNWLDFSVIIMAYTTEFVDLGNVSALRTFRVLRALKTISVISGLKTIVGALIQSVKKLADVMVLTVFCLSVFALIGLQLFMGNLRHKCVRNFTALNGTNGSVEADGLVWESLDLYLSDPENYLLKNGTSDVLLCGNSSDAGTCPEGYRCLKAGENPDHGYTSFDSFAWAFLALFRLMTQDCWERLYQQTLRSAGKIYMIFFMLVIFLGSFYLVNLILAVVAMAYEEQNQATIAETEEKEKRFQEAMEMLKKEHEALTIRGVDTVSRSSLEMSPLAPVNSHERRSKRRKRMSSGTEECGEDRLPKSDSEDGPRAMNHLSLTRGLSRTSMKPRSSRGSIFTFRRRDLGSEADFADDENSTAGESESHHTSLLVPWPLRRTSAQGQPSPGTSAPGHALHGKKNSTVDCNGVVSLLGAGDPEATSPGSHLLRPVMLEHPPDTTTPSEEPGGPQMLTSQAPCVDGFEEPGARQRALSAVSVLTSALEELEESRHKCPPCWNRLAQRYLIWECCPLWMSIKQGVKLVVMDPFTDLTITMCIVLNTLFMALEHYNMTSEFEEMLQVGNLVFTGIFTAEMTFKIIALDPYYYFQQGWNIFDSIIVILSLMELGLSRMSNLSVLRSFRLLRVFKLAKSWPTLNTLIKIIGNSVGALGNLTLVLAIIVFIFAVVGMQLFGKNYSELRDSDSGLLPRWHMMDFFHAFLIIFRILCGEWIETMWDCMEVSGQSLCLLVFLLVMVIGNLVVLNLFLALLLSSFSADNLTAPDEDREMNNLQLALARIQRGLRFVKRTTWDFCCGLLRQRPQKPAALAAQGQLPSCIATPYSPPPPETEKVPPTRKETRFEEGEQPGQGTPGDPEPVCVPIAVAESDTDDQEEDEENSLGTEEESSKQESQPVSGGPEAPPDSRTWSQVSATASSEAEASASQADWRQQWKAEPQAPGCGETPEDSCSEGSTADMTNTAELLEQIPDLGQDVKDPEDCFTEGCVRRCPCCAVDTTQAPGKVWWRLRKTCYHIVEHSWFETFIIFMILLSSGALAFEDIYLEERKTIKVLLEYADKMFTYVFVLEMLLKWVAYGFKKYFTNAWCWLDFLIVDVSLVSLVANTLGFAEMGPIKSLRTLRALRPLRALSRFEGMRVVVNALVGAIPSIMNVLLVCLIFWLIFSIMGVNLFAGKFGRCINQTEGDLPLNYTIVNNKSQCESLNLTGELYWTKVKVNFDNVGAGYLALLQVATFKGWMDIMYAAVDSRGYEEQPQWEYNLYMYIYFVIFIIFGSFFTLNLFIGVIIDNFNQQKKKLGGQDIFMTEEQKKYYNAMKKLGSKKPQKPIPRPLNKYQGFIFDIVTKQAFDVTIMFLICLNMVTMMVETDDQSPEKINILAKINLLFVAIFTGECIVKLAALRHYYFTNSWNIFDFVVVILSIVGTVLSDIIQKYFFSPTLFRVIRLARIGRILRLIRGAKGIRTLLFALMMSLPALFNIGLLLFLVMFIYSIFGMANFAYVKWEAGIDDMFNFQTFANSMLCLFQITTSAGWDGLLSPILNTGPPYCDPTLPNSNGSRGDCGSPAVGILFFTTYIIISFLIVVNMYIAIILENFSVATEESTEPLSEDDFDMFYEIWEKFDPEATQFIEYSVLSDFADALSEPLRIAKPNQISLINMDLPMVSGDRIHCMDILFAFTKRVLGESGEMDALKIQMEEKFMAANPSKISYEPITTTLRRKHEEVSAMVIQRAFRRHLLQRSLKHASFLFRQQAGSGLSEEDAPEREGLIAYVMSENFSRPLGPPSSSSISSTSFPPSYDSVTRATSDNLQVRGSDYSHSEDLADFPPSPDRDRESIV
# [1] = read-out: Flux NaV1.5 IC50, Trex HEK293 cells, ANG2 dye, inactivated state
SMILES,IC50 (NaV1.6),IC50 (NaV1.1),IC50 (NaV1.5),IC50 (NaV1.5; [1])
"O=S(=O)(Nc1cscn1)c1cc(Cl)c(NCc2c(F)cccc2CN2CC3(CCC3)C2)cc1F [Example 128, 4-((2-((2-azaspiro[3.3]heptan-2-yl)methyl)-6-fluorobenzyl)amino)-5-chloro-2-fluoro-N-(thiazol-4-yl)benzenesulfonamide]",0.208 µM,5.37 µM,6.72 µM,
"O=S(=O)(Nc1cscn1)c1cc(Cl)c(NCc2ccc(F)cc2CN2CCC2)cc1F [Example 132, 4-((2-(azetidin-1-ylmethyl)-4-fluorobenzyl)amino)-5-chloro-2-fluoro-N-(thiazol-4-yl)benzenesulfonamide]",5.11 µM,7.87 µM,,24.7 µM
"O=S(=O)(Nc1ncccn1)c1c(F)cc(NCc2c(F)cccc2CN2CCC2)cc1F [Example 145, 4-((2-(azetidin-1-ylmethyl)-6-fluorobenzyl)amino)-2,6-difluoro-N-(pyrimidin-2-yl)benzenesulfonamide 2,2,2-trifluoroacetate]",0.467 µM,30 µM,,30 µM
"C[C@H](Nc1cc(F)c(S(=O)(=O)Nc2cscn2)cc1Cl)c1cc(C2CC2)ccc1F [Example 146, (S)-5-chloro-4-((1-(5-cyclopropyl-2-fluorophenyl)ethyl)amino)-2-fluoro-N-(thiazol-4-yl)benzenesulfonamide]",4.12 µM,5.57 µM,,9.84 µM
"Cc1ccc(F)cc1CNc1cc(F)c(S(=O)(=O)Nc2cscn2)cc1Cl [Example 147, 5-chloro-2-fluoro-4-((5-fluoro-2-methylbenzyl)amino)-N-(thiazol-4-yl)benzenesulfonamide]",3.31 µM,3.43 µM,,2.72 µM
"C[C@H](Nc1ccc(S(=O)(=O)Nc2cscn2)c(F)c1Cl)c1c(F)cccc1Cl [Example 148, (S)-3-chloro-4-((1-(2-chloro-6-fluorophenyl)ethyl)amino)-2-fluoro-N-(thiazol-4-yl)benzenesulfonamide]",1.25 µM,2.95 µM,,4.84 µM
"C[C@H](Nc1ccc(S(=O)(=O)Nc2cscn2)c(F)c1Cl)c1c(F)cccc1F [Example 149, (S)-3-chloro-4-((1-(2,6-difluorophenyl)ethyl)amino)-2-fluoro-N-(thiazol-4-yl)benzenesulfonamide]",0.78 µM,3.36 µM,,6.39 µM
"O=S(=O)(Nc1cscn1)c1cc(Cl)c(OCc2c(F)ccc(F)c2CN2CCC2)cc1F [Example 150, 4-((2-(azetidin-1-ylmethyl)-3,6-difluorobenzyl)oxy)-5-chloro-2-fluoro-N-(thiazol-4-yl)benzenesulfonamide]",2.82 µM,30 µM,,8.66 µM
"CN1CCN(Cc2cccc(F)c2CNc2cc(F)c(S(=O)(=O)Nc3cscn3)c(F)c2)CC1 [Example 151, 2,6-difluoro-4-((2-fluoro-6-((4-methylpiperazin-1-yl)methyl)-benzyl)amino)-N-(thiazol-4-yl)benzenesulfonamide formate]",2.1 µM,20.5 µM,,30 µM
"CCOC1(C)CN(Cc2cccc(F)c2CNc2cc(F)c(S(=O)(=O)Nc3cscn3)c(F)c2)C1 [Example 152, 4-((2-((3-ethoxy-3-methylazetidin-1-yl)methyl)-6-fluorobenzyl)amino)-2,6-difluoro-N-(thiazol-4-yl)benzenesulfonamide formate]",0.16 µM,10.3 µM,,19 µM
"COC[C@H]1CCCN1Cc1cccc(F)c1CNc1cc(F)c(S(=O)(=O)Nc2cscn2)c(F)c1 [Example 154, (R)-2,6-difluoro-4-((2-fluoro-6-((2-(methoxymethyl)pyrrolidin-1-yl)methyl)benzyl)amino)-N-(thiazol-4-yl)benzenesulfonamide formate]",0.451 µM,28.8 µM,,30 µM
"O=S(=O)(Nc1cscn1)c1c(F)cc(NCc2c(F)cccc2CN2CCC3(CCO3)C2)cc1F (stereo not drawn) [Example 155, 4-((2-((1-oxa-6-azaspiro[3.4]octan-6-yl)methyl)-6-fluorobenzyl)amino)-2,6-difluoro-N-(thiazol-4-yl)benzenesulfonamide formate]",0.25 µM,30 µM,,30 µM
"O=S(=O)(Nc1cscn1)c1c(F)cc(NCc2c(F)cccc2CN2CCC23COC3)cc1F [Example 157, 4-((2-((6-oxa-1-azaspiro[3.3]heptan-1-yl)methyl)-6-fluorobenzyl)amino)-2,6-difluoro-N-(thiazol-4-yl)benzenesulfonamide formate]",2.36 µM,30 µM,,30 µM
"O=S(=O)(Nc1cscn1)c1c(F)cc(NCc2c(F)cccc2CN2CCC3(CCC3)C2)cc1F [Example 159, 4-((2-((6-azaspiro[3.4]octan-6-yl)methyl)-6-fluorobenzyl)amino)-2,6-difluoro-N-(thiazol-4-yl)benzenesulfonamide formate]",0.153 µM,9.21 µM,11.8 µM,
"O=S(=O)(Nc1cscn1)c1c(F)cc(NCc2c(F)cccc2CN2CC3(C2)CC(F)(F)C3)cc1F [Example 160, 4-((2-((6,6-difluoro-2-azaspiro[3.3]heptan-2-yl)methyl)-6-fluorobenzyl)amino)-2,6-difluoro-N-(thiazol-4-yl)benzenesulfonamide formate]",0.064 µM,6.51 µM,23 µM,
